Patent US7452549B2, “Synergistic antioxidant combination of delta tocols and polyphenols” (Nestec S.A., priority 2001, dated 2008)

System: LDL fraction
Assay: Oxidation of LDL in vitro (Cu2+-initiated, conjugated diene absorbance at 234 nm, lag phase)
Format: biochemical, human
Conditions: for synergistic antioxidant properties in combination with TRF or purified δ-tocol: non-polyphenolic antioxidants
Description: Oxidation of LDL In Vitro Plasma was obtained from the blood of healthy male and female volunteers and was frozen. […] Tubes were then centrifuged at 400 000 g at 15° C. for 2 hours. The top fraction (chylomicrons+VLDL) was removed. […] After centrifugation at 400 000 g at 15° C. for 2 hours, the LDL fraction floating on the top was collected. […] The fractions were supplemented with ethanolic solutions containing various extracts or with the same volume of pure ethanol (control). Oxidation was initiated by adding freshly-prepared CuSO4 solution (25 μmol/l final concentration) at 37° C. The kinetics of the oxidation of lipoprotein was determined by continuously monitoring the change in absorbance at 234 nm (at 37° C.) on a UV/VIS spectrophotometer, which correlates with the increase in conjugated diene absorbance. […] The time required for the formation of diene is defined as the lag phase. The longer the lag phase the better the protection of LDL against oxidation. […] Concentration-response curves for the LDL oxidation assay were plotted separately for each of the tocol preparations, and for the water-soluble antioxidant preparations (see FIGS. 1 to 5). In each experiment, the tocotrienol content of the tocol preparations (TRF) was standardised to 0.05 or 0.1 μg/ml.

Structure (SMILES)	synergistic antioxidant properties in combination with TRF or purified δ-tocol	synergistic effect with polyphenols in in vitro LDL oxidation studies	relative performance of δ-tocotrienol vs δ-tocopherol in in vitro LDL oxidation studies
CC(=O)N[C@@H](CS)C(=O)O [N-acetylcysteine]	same lack of synergy	–	–
Cc1cc(O)cc2c1O[C@](C)(CCC[C@H](C)CCC[C@H](C)CCCC(C)C)CC2 [δ-tocopherol]	–	remarkable synergistic effects	–
CC(C)=CCC/C(C)=C/CC/C(C)=C/CC[C@]1(C)CCc2cc(O)cc(C)c2O1 [δ-tocotrienol]	–	remarkable synergistic effects	performs marginally better
O=C(O)CCCCC1CCSS1 (stereo not drawn) [α-lipoic acid]	same lack of synergy	–	–
O=C1O[C@H]([C@@H](O)CO)C(O)=C1O [ascorbic acid]	not to have synergistic antioxidant properties	–	–
